US8129381B2, “Caspase inhibitors and uses thereof” (Vertex Pharmaceuticals Incorporated, priority 2002, dated 2012)

How the values were obtained:
[1] = system: IL-1β secretion from human whole blood; assay: Inhibition of IL-1β secretion from whole blood; format: cell-based; details: human whole blood diluted 1:2 in PBS, LPS 5 ng/ml, 18 hours, ELISA
Description: Human blood is freshly drawn from healthy donors and diluted 1:2 in PBS. To 500 μl of diluted blood […] of prediluted test compound in RPMI medium and […] LPS (5 ng/ml final concentration on the plate) are added (LPS, Serotype 0111:B4, Sigma L3012). After stimulation for 18 hours supernatants are collected and assayed for IL-1β levels using the appropriate ELISA kit (R&D systems).
Compounds with an IC50>10 μM are listed as “A”. Compounds with an IC50 between 1 μM and 10 uM are listed as “B”. Compounds with an IC50<1 μM are listed as “C”.

[2] = system: rat cortical neurons; assay: Hypoxia-induced apoptosis of rat cortical neurons; format: cell-based, Wistar rat; details: Cortical neurone, oxygen-depleted serum-free medium, Cell Death Detection ELISA (DNA fragmentation)
Description: Cortical neurons are dissociated from Wistar rat embryos (E17) by a modification of the procedure of Rogers et al., Brain Res. Bulletin, 44:131 (1998). Briefly, cerebral cortices are isolated aseptically from 15-20 Wistar rat embryos. A cell suspension is prepared by mincing the cerebral cortices and digesting them with papain. Cells are washed with ovomucoid enzyme inhibitor and DNaseI and plated onto Poly-D lysine coated plates in high glucose DMEM containing 10% heat-inactivated fetal calf serum, L-glutamine, penicillin and streptomycin. The yield of neurons is […] per embryo and they are 80-90% viable as assessed by Trypan blue exclusion.
The neurons are cultured in complete medium at 37° C. in a normal atmosphere for 48 hours prior to the hypoxia experiments. For hypoxia, the normal cell medium is replaced by oxygen-depleted serum-free medium. Cells are incubated in an atmosphere of 95% N2/5% CO2 for various lengths of time. Compounds are dissolved in DMSO at 100 mM then diluted in medium and added to the culture from time=0. The level of apoptosis is measured using a Cell Death Detection ELISA kit (Roche) which detects DNA fragmentation. Plates are read at 405 nm. Controls included cells cultured in aerobic conditions in serum-containing medium (+serum) and cells cultured in aerobic conditions in serum-deprived medium (−serum).
Compounds with an IC50>0.5 μM are listed as “A”. Compounds with an IC50 between 0.1 μM and 0.5 uM are listed as “B”. Compounds with an IC50<0.1 μM are listed as “C”.

[3] = target: T1, recombinant, purified human Caspase-3 (Homo sapiens, UniProt P42574); assay: Enzyme assay, caspase inhibition (fluorogenic substrate cleavage); format: biochemical; details: second order rate constant of enzyme inactivation; substrate Acetyl-Asp-Glu-Val-Asp-amino-4-methylcoumarin
T1 sequence (P42574 29-175 limits assumed): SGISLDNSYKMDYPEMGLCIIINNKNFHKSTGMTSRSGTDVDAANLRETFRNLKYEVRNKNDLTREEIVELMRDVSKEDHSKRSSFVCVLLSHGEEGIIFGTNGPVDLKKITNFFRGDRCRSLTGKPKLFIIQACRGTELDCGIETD
T1 sequence (P42574 176-277 limits assumed): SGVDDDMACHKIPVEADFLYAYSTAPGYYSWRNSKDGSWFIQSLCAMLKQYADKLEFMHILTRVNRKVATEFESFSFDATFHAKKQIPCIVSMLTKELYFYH
Text: (§1) The assays for caspase inhibition are based on the cleavage of a fluorogenic substrate by recombinant, purified human Caspases −1, −3, −7 or −8. The assays are run in essentially the same way as those reported by Garcia-Calvo et al., J. Biol. Chem. 273, 32608-32613 (1998), using a substrate specific for each enzyme. The substrate for Caspase-1 is Acetyl-Tyr-Val-Ala-Asp-amino-4-methylcoumarin and the substrate for Caspases −3, −7 and −8 is Acetyl-Asp-Glu-Val-Asp-amino-4-methylcoumarin both as disclosed in Garcia-Calvo et al., J. Biol. Chem. 273, 32608-32613 (1998).
(§2) The observed rate of enzyme inactivation at a particular inhibitor concentration, kobs, is computed by direct fits of the data to the equation derived by Thornberry et al., Biochemistry, 33, […] (1994) using a nonlinear least-squares analysis computer program (PRISM 2.0; GraphPad software). To obtain the second order rate constant, kinact, kobs values are plotted against their respective inhibitor concentrations and kinact values are subsequently calculated by computerized linear regression.
(§3) Compounds with kinact(M^−1s^−1)>500000 are listed as “A”. Compounds with kinact(M^−1s^−1) between 100000 and 500000 are listed as “B”. Compounds with kinact(M^−1s^−1)<100000 are listed as “C”.

[4] = target: recombinant, purified human Caspase-8 (Homo sapiens, UniProt Q14790); assay: as above; format: biochemical; details: second order rate constant of enzyme inactivation; substrate Acetyl-Asp-Glu-Val-Asp-amino-4-methylcoumarin
Chain of recombinant, purified human Caspase-8 (Q14790 217-374 limits assumed): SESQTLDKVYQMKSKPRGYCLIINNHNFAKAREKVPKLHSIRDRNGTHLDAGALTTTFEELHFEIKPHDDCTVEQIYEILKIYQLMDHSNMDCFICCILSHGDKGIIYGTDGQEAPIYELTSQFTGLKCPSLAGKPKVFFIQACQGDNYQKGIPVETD
Chain of recombinant, purified human Caspase-8 (Q14790 385-479 limits assumed): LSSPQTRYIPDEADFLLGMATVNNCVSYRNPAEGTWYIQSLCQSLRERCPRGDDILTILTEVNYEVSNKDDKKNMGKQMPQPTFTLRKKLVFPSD
Text: as §1, §2, §3

[5] = target: T2, recombinant, purified human Caspase-1 (Homo sapiens, UniProt P29466); assay: as above; format: biochemical; details: second order rate constant of enzyme inactivation; substrate Acetyl-Tyr-Val-Ala-Asp-amino-4-methylcoumarin
T2 sequence (P29466 120-297 limits assumed): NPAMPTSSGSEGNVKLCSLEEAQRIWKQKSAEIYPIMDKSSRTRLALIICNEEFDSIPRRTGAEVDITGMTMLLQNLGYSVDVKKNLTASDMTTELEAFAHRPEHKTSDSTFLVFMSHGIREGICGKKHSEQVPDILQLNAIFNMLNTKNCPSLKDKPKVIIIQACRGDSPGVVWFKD
T2 sequence (P29466 317-404 limits assumed): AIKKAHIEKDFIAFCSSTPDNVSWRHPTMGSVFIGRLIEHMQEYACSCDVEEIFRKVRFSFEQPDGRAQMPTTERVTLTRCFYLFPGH
Text: as §1, §2, §3

Row | IC50 [1] | Structure (SMILES) | IC50 [2] | kinact Caspase-3 [3] | kinact Caspase-8 [4] | kinact Caspase-1 [5]
1 | < 1 µM | CC[C@@H](C(=O)NC(CC(=O)O)C(=O)CF)n1ccc2ccc(Cl)cc2c1=O (mixture of isomers) [Compound 1, (S)-3-[2-(7-chloro-1-oxo-1H-isoquinolin-2-yl)-butyrylamino]-5-fluoro-4-oxo-pentanoic acid] | 100 to 500 nM | A (Compounds with kinact(M^−1s^−1)>500000 are listed as “A”) | B (Compounds with kinact(M^−1s^−1) between 100000 and 500000 are listed as “B”) | A (Compounds with kinact(M^−1s^−1)>500000 are listed as “A”)
2 | < 1 µM | CC[C@@H](C(=O)NC(CC(=O)O)C(=O)CF)n1ccc2ccc(C(F)(F)F)cc2c1=O (mixture of isomers) [Compound 2, (S)-3-[2-(7-trifluoromethyl-1-oxo-1H-isoquinolin-2-yl)-butyrylamino]-5-fluoro-4-oxo-pentanoic acid] | > 500 nM | A (Compounds with kinact(M^−1s^−1)>500000 are listed as “A”) | A (Compounds with kinact(M^−1s^−1)>500000 are listed as “A”) | A (Compounds with kinact(M^−1s^−1)>500000 are listed as “A”)
3 | 1 to 10 µM | CC[C@@H](C(=O)NC(CC(=O)O)C(=O)CF)n1ccc2cc(Cl)ccc2c1=O (mixture of isomers) [Compound 3, (S)-3-[2-(6-chloro-1-oxo-1H-isoquinolin-2-yl)-butyrylamino]-5-fluoro-4-oxo-pentanoic acid] | 100 to 500 nM | B (Compounds with kinact(M^−1s^−1) between 100000 and 500000 are listed as “B”) | C (Compounds with kinact(M^−1s^−1)<100000 are listed as “C”) | B (Compounds with kinact(M^−1s^−1) between 100000 and 500000 are listed as “B”)
4 | 1 to 10 µM | CC(C)[C@@H](C(=O)NC(CC(=O)O)C(=O)CF)n1ccc2ccc(Cl)cc2c1=O (mixture of isomers) [Compound 18, (S)-3-[2-(7-chloro-1-oxo-1H-isoquinolin-2-yl)-3-methylbutyrylamino]-5-fluoro-4-oxo-pentanoic acid] | 100 to 500 nM | B (Compounds with kinact(M^−1s^−1) between 100000 and 500000 are listed as “B”) | C (Compounds with kinact(M^−1s^−1)<100000 are listed as “C”) | B (Compounds with kinact(M^−1s^−1) between 100000 and 500000 are listed as “B”)
5 | 1 to 10 µM | CC[C@@H](C(=O)NC(CC(=O)O)C(=O)CF)n1ccc2ccc(-c3ccccc3)cc2c1=O (mixture of isomers) [Compound 21, (S)-3-[2-(7-phenyl-1-oxo-1H-isoquinolin-2-yl)-butyrylamino]-5-fluoro-4-oxo-pentanoic acid] | 100 to 500 nM | A (Compounds with kinact(M^−1s^−1)>500000 are listed as “A”) | A (Compounds with kinact(M^−1s^−1)>500000 are listed as “A”) | A (Compounds with kinact(M^−1s^−1)>500000 are listed as “A”)
6 | 1 to 10 µM | CC[C@@H](C(=O)NC(CC(=O)O)C(=O)CF)n1ccc2cc(C(F)(F)F)ccc2c1=O (stereo in doubt) [Compound 4, (S)-3-[2-(6-trifluoromethyl-1-oxo-1H-isoquinolin-2-yl)-butyrylamino]-5-fluoro-4-oxo-pentanoic acid] | > 500 nM | B (Compounds with kinact(M^−1s^−1) between 100000 and 500000 are listed as “B”) | C (Compounds with kinact(M^−1s^−1)<100000 are listed as “C”) | B (Compounds with kinact(M^−1s^−1) between 100000 and 500000 are listed as “B”)
7 | 1 to 10 µM | CC[C@@H](C(=O)N[C@@H](CC(=O)O)C(=O)COc1c(F)c(F)cc(F)c1F)n1cnc2ccc(Cl)cc2c1=O [Compound 5, (S,S)-3-[2-(6-Chloro-4-oxo-4H-quinazolin-3-yl)-butyrylamino]-4-oxo-5-(2,3,5,6-tetrafluoro-phenoxy)pentanoic acid] | 100 to 500 nM | A (Compounds with kinact(M^−1s^−1)>500000 are listed as “A”) | B (Compounds with kinact(M^−1s^−1) between 100000 and 500000 are listed as “B”) | A (Compounds with kinact(M^−1s^−1)>500000 are listed as “A”)
8 | 1 to 10 µM | CC[C@@H](C(=O)N[C@@H](CC(=O)O)C(=O)COc1c(F)c(F)cc(F)c1F)n1cnc2ccccc2c1=O [Compound 6, (S,S)-4-Oxo-3-[2-(4-oxo-4H-quinazolin-3-yl)-butyrylamino]-5-(2,3,5,6-tetrafluoro-phenoxy)pentanoic acid] | 100 to 500 nM | A (Compounds with kinact(M^−1s^−1)>500000 are listed as “A”) | C (Compounds with kinact(M^−1s^−1)<100000 are listed as “C”) | B (Compounds with kinact(M^−1s^−1) between 100000 and 500000 are listed as “B”)
9 | > 10 µM | CC[C@@H](C(=O)N[C@@H](CC(=O)O)C(=O)COc1c(F)cc(F)cc1F)n1cnc2ccccc2c1=O [Compound 7, (S,S)-4-Oxo-3-[2-(4-oxo-4H-quinazolin-3-yl)-butyrylamino]-5-(2,4,6-trifluoro-phenoxy)-pentanoic acid] | > 500 nM | B (Compounds with kinact(M^−1s^−1) between 100000 and 500000 are listed as “B”) | C (Compounds with kinact(M^−1s^−1)<100000 are listed as “C”) | C (Compounds with kinact(M^−1s^−1)<100000 are listed as “C”)
10 | 1 to 10 µM | CC[C@@H](C(=O)N[C@@H](CC(=O)O)C(=O)COc1c(F)ccc(F)c1F)n1cnc2ccccc2c1=O [Compound 8, (S,S)-4-Oxo-3-[2-(4-oxo-4H-quinazolin-3-yl)-butyrylamino]-5-(2,5,6-trifluoro-phenoxy)-pentanoic acid] | 100 to 500 nM | B (Compounds with kinact(M^−1s^−1) between 100000 and 500000 are listed as “B”) | C (Compounds with kinact(M^−1s^−1)<100000 are listed as “C”) | B (Compounds with kinact(M^−1s^−1) between 100000 and 500000 are listed as “B”)
11 | > 10 µM | CC[C@@H](C(=O)N[C@@H](CC(=O)O)C(=O)COc1c(F)c(F)cc(F)c1F)n1ccc2ccccc2c1=O [Compound 9, (S,S)-3-[2-(1-oxo-1H-isoquinolin-2-yl)-butyrylamino]-4-oxo-5-(2,3,5,6-tetrafluoro-phenoxy)-pentanoic acid] | 100 to 500 nM | B (Compounds with kinact(M^−1s^−1) between 100000 and 500000 are listed as “B”) | C (Compounds with kinact(M^−1s^−1)<100000 are listed as “C”) | B (Compounds with kinact(M^−1s^−1) between 100000 and 500000 are listed as “B”)
